The values below come from patent publication US9221832B2, “Heterocyclic amide derivatives as P2X7 receptor antagonists” (ACTELION PHARMACEUTICALS LTD., priority 2011, dated 2015).

This experiment addresses human recombinant P2X7 receptor (Homo sapiens (Human), UniProt Q99572). The experiment is described as follows: YO-PRO assay: P2X7 receptor antagonistic activity. Format: cell-based. The note with it: HEK cells expressing human P2X7. How it is done: The P2X7 receptor antagonistic activity of the compounds of formula (I) is determined in accordance with the following experimental method.
Cell Line Generation and YO-PRO Assay
Cell line generation was performed in general according to established molecular cloning protocols. Specifically, RNA was extracted from human whole blood using the Qiagen RNeasy kit (Qiagen, CH) according to the manufacturer's instructions. Subsequently cDNA was made (Superscript II, Invitrogen AG, CH) and the human P2X7 gene (genbank ref. BC011913) was amplified with the following primers: […] and […]. The amplified sequence was subsequently ligated into a pcDNA3.1 (+) NotI, NheI digested plasmid. […] Following a 24 h exposure to DNA, cells were trypsinized and re-seeded at low density in the presence of 250 μg Geneticin. Geneticin resistant cells were then selected during two consecutive rounds of cloning by serial limiting dilution with visual inspection. Individual clones were screened for P2X7 expression by applying ATP and recording the resultant uptake of YO-PRO1. Specific cell clones were chosen based on RNA and protein expression. HEK cells stably expressing P2X7 were used to screen drugs using the YO-PRO1 assay. Cells were grown to confluency in adherent culture at 37° C. in a humidified 5% CO2 incubator (split 1/5 every 3-4 days with DMEM, 10% FCS, 1% Penicillin/Streptomycin, 250 μg/ml Geneticin). Adherent cells were detached by incubation with Trypsine (1 ml per 165 cm^2 dish) for 2 minutes, then washed off with 10 ml PBS (without Mg^2+ and Ca^2+), and resuspended in DMEM, 10% FCS, 1% Penicillin/Streptomycin, no Geneticin. […] During this time period, four time points were taken. Each time point comprised the average of several measurements made within a few seconds. […] The FLIPR tetra was equipped with Molecular Devices Screen Works system control software to define and run experimental protocols. […] For IC50 measurements the maximum intensity is plotted against the concentration of compound to determine IC50 values.

Sequence of human recombinant P2X7 receptor (Q99572 whole entry): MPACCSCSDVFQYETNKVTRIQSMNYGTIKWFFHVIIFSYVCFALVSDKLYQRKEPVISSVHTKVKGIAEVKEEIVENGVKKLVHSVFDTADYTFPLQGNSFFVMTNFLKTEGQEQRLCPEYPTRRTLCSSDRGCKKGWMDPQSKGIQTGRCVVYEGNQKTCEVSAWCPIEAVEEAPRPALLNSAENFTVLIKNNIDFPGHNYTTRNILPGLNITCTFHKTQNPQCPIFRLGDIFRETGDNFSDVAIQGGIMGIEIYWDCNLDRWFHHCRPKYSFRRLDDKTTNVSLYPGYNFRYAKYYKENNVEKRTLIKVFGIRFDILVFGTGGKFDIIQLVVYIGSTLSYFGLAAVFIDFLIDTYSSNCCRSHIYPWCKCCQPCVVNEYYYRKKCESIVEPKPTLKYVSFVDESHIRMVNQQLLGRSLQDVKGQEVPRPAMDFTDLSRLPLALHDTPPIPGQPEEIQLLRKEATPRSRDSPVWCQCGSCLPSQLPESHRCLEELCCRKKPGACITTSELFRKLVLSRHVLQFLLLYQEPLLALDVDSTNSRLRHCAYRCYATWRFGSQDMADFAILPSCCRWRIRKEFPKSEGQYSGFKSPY

As a reminder, the IC50 is the midpoint of a concentration-inhibition curve. Turning to `O=C(NC1COc2ncccc21)C1CCc2cc(Cl)cc(Cl)c21` (single isomer, unassigned) [Example 146, 5,7-dichloro-N-(2,3-dihydrofuro[2,3-b]pyridin-3-yl)-2,3-dihydro-1H-indene-1-carboxamide], the IC50 was 160 nM. For the compound `N#Cc1cccc(CC(=O)NC2COc3ncccc32)c1C(F)(F)F` (racemic) [Example 113, rac-2-(3-Cyano-2-trifluoromethyl-phenyl)-N-(2,3-dihydro-furo[2,3-b]pyridin-3-yl)-acetamide], the IC50 came to 28 nM. On to `O=C(NC1CCOc2ncccc21)C1(c2ccc(F)cc2Cl)CCCC1` (racemic) [Example 59, rac-1-(2-Chloro-4-fluoro-phenyl)-cyclopentanecarboxylic acid (3,4-dihydro-2H-pyrano[2,3-b]pyridin-4-yl)-amide], for which the IC50 stood at 390 nM. Consider `N#Cc1ccc(CC(=O)NC2COc3ncccc32)cc1` (racemic) [Example 13, rac-2-(4-Cyano-phenyl)-N-(2,3-dihydro-furo[2,3-b]pyridin-3-yl)-acetamide], for which the IC50 was above 5420 nM. With `O=C(Cc1ccc(C(F)(F)F)cc1)NC1COc2ncccc21` (racemic) [Example 16, rac-N-(2,3-Dihydro-furo[2,3-b]pyridin-3-yl)-2-(4-trifluoromethyl-phenyl)-acetamide], the concentration for half-maximal inhibition (IC50) was found to be 1170 nM. Consider `O=C(Cc1ccc(Cl)cc1)NC1COc2ncccc21` (racemic) [Example 15, rac-2-(4-Chloro-phenyl)-N-(2,3-dihydro-furo[2,3-b]pyridin-3-yl)-acetamide], for which the IC50 is 1410 nM. Consider `Cc1ccnc2c1C(NC(=O)Cc1cccc(C(F)(F)F)c1Cl)CO2` (racemic) [Example 137, rac-2-(2-Chloro-3-trifluoromethyl-phenyl)-N-(4-methyl-2,3-dihydro-furo[2,3-b]pyridin-3-yl)-acetamide], for which the IC50 worked out at 37 nM.

On to `O=C(Cc1cccc(Cl)c1C(F)(F)F)NC1COc2ncccc21` (racemic) [Example 97, rac-2-(3-Chloro-2-trifluoromethyl-phenyl)-N-(2,3-dihydro-furo[2,3-b]pyridin-3-yl)-acetamide], for which the IC50 came to 15 nM. On to `Cc1ccc(OCC(=O)NC2CCOc3ncccc32)c(C)n1` (racemic) [Example 61, rac-N-(3,4-Dihydro-2H-pyrano[2,3-b]pyridin-4-yl)-2-(2,6-dimethyl-pyridin-3-yloxy)-acetamide], for which the IC50 was 814 nM.

Turning to `COc1ccccc1CC(=O)NC1COc2ncccc21` (racemic) [Example 12, rac-N-(2,3-Dihydro-furo[2,3-b]pyridin-3-yl)-2-(2-methoxy-phenyl)-acetamide], the IC50 was above 6000 nM. As for `O=C(Cc1ccc(Cl)cc1C(F)(F)F)NC1COc2ncccc21` (racemic) [Example 35, rac-2-(4-Chloro-2-trifluoromethyl-phenyl)-N-(2,3-dihydro-furo[2,3-b]pyridin-3-yl)-acetamide], the half-inhibitory concentration (IC50) was 193 nM. In the case of `O=C(Cc1cccc(C(F)(F)F)c1Cl)NC1COc2ncccc21` (single isomer, unassigned) [Example 74, 2-(2-Chloro-3-trifluoromethyl-phenyl)-N-(2,3-dihydro-furo[2,3-b]pyridin-3-yl)-acetamide], the IC50 turned out to be 4.7 nM. For `Cc1ccc2c(n1)OCC2NC(=O)Cc1cccc(C(F)(F)F)c1Cl` (racemic) [Example 134, rac-2-(2-Chloro-3-trifluoromethyl-phenyl)-N-(6-methyl-2,3-dihydro-furo[2,3-b]pyridin-3-yl)-acetamide], the IC50 turned out to be 21 nM. On to `CC(C(=O)NC1COc2ncccc21)c1ccc(Cl)cc1Cl` (stereo not drawn) [Example 85, 2-(2,4-Dichloro-phenyl)-N-2,3-dihydro-furo[2,3-b]pyridin-3-yl-propionamide], for which the IC50 worked out at 15 nM. As for `Cc1c(Cl)cc(C(F)(F)F)c(CC(=O)NC2COc3ncccc32)c1F` (racemic) [Example 40, rac-2-(4-Chloro-2-fluoro-3-methyl-6-trifluoromethyl-phenyl)-N-(2,3-dihydro-furo[2,3-b]pyridin-3-yl)-acetamide], the IC50 is 1580 nM.

As to `O=C(Cc1cccc(C(F)(F)F)c1Cl)NC1COc2nc(Cl)ccc21` (racemic) [Example 143, rac-N-(6-Chloro-2,3-dihydro-furo[2,3-b]pyridin-3-yl)-2-(2-chloro-3-trifluoromethyl-phenyl)-acetamide], the IC50 is 65 nM. Next, `O=C(Cc1ccccc1Cl)NC1CCOc2ncccc21` (racemic) [Example 44, rac-2-(2-Chloro-phenyl)-N-(3,4-dihydro-2H-pyrano[2,3-b]pyridin-4-yl)-acetamide]: 2000 nM; `O=C(Cc1c(Cl)ccc(C(F)(F)F)c1Cl)NC1COc2ncccc21` (racemic) [Example 72, rac-2-(2,6-Dichloro-3-trifluoromethyl-phenyl)-N-(2,3-dihydro-furo[2,3-b]pyridin-3-yl)-acetamide]: 1020 nM; `O=C(Cc1ccc(F)cc1F)NC1CCOc2ncccc21` (racemic) [Example 51, rac-2-(2,4-Difluoro-phenyl)-N-(3,4-dihydro-2H-pyrano[2,3-b]pyridin-4-yl)-acetamide]: 1690 nM. With `Cc1ccc(CC(=O)NC2COc3ncccc32)cc1` (racemic) [Example 14, rac-N-(2,3-Dihydro-furo[2,3-b]pyridin-3-yl)-2-p-tolyl-acetamide], the 50% inhibitory concentration (IC50) is above 5430 nM.

`Cc1ccc2c(n1)OCC2NC(=O)Cc1c(C)cc(Cl)cc1Cl` (racemic) [Example 133, rac-2-(2,4-Dichloro-6-methyl-phenyl)-N-(6-methyl-2,3-dihydro-furo[2,3-b]pyridin-3-yl)-acetamide]: the half-inhibitory concentration (IC50) was found to be 43 nM. Next, `O=C(Cc1ccc(Cl)cc1Cl)NC1COc2c1ccnc2Cl` (racemic) [Example 106, rac-N-(7-Chloro-2,3-dihydro-furo[2,3-c]pyridin-3-yl)-2-(2,4-dichloro-phenyl)-acetamide]: 52 nM. With `O=C(Cc1c(Cl)cc(Cl)cc1CO)NC1COc2ncccc21` (racemic) [Example 103, rac-2-(2,4-Dichloro-6-hydroxymethyl-phenyl)-N-(2,3-dihydro-furo[2,3-b]pyridin-3-yl)-acetamide], the IC50 stood at 16 nM. For `Cc1cc(Cl)cc(Cl)c1CC(=O)NC1COc2cnccc21` (racemic) [Example 89, rac-2-(2,4-Dichloro-6-methyl-phenyl)-N-(2,3-dihydro-furo[2,3-c]pyridin-3-yl)-acetamide], the concentration for half-maximal inhibition (IC50) came to 3.2 nM. As to `O=C(Cc1cccc(C(F)(F)F)c1Cl)NC1COc2nccc(C(F)(F)F)c21` (racemic) [Example 152, rac-2-(2-Chloro-3-trifluoromethyl-phenyl)-N-(4-trifluoromethyl-2,3-dihydro-furo[2,3-b]pyridin-3-yl)-acetamide], the 50% inhibitory concentration (IC50) worked out at 861 nM. Next, `NC(=O)c1cccc(CC(=O)NC2COc3ncccc32)c1Cl` (racemic) [Example 80, rac-2-Chloro-3-[(2,3-dihydro-furo[2,3-b]pyridin-3-ylcarbamoyl)-methyl]-benzamide]: 1240 nM. `Cc1ccccc1CC(=O)NC1COc2ncccc21` (racemic) [Example 11, rac-N-(2,3-Dihydro-furo[2,3-b]pyridin-3-yl)-2-o-tolyl-acetamide]: the half-inhibitory concentration (IC50) was determined as 1310 nM.
